{
  "source": "patent US4795639A",
  "about": "“Potentiating formulations” (priority 1971, dated 1989)",
  "key": {"E. tenella": {"tested_on": "E. tenella", "test": "coccidiosis screening test in chicks, E. tenella", "type": "in vivo, Eimeria tenella", "settings": "Expt. 4; 100,000 oocysts; p.p.m SQX/DV/DMHP: b374 10/-/-; b375 -/20/-; b376 -/-/10; b377 10/-/10; b378 -/20/10; b379 10/20/-; b381 10/20/10; b382 20/-/-; b383 -/40/-; b384 -/-/20; b385 20/-/20; b386 -/40/20; b387 20/40/-; b389 20/40/20", "method": "\"Screening tests\" were performed to establish the effectiveness of the compounds of formula (I) both alone and in combination with a competitor and or an inhibitor and to determine the most useful levels of relative concentrations of each component in combatting or suppressing coccidiosis.\nGroups of Ranger cockerels, housed in small, heated cages with wire floors situated in enironmentally controlled isolation rooms, were infected orally with sporulated oocysts of the Eimeria spp such as E. tenella or E. acervulina. The appropriate test compound(s), (DMHP, sulphaquinoxaline (SQX) or diaveridine (DV) or any combination of these) were incorporated in a small quantity of specially formulated laboratory ration deficient in Vitamin K (`L.D.4 mash`), as a 1/10 pre-mix, which was then mixed into the diet on a horizontal roller drum mixed and administered to groups of chicks one day prior to infection, leaving some groups as untreated controls. Administration was continued for several days, for example about 8 or 9 days.\nThe amount of damage, marked by lesions in the caecal walls was investigated in those chicks that died during the course of the experiment, and in those sacrificed on the final day of administration, and compared with the untreated controls as a basis for the determination of therapeutic activity. In addition the mortality rate and the percentage weight gains in the various groups were assessed. A marked or definite effect of the administered drug could be recognised even when the mortality rates were similar or identical, since the increase in the weight gains and the reduction of the extension of lesions indicated by the lesion score, is characteristic of an improvement. […]\n4:1 sulphaquinoxaline/diaveridine mixtures at levels of 80/20, 60/15, 40/10 and 20/5 p.p.m. were administered alone and in combination with a wide range of low concentrations of DMHP to the birds.\nThe results of these screening tests are set forth in Table 4 showing the concentration of the various component compounds in parts per million of the bird's diet, the mortality from coccidiosis, the percentage weight gain, the lesion score the oocyst output, and the activity. The caecal lesion index is calculated using a score system where: […]\nIn addition a score of 4 is assigned to any bird that dies of coccidiosis during the experiment. [formula] In the activity column, +++, ++, +, ± and - relate respectively to very high, high, slight, doubtful and nil activity of the test drug against the Eimeria infection."}, "Pasteurella multocida": {"tested_on": "Pasteurella multocida", "test": "Pasteurella multocida infection in chicks", "type": "in vivo", "settings": "for Cumulative Mortality on day 1: groups of 10 chicks, 15:85 TMP SQX p.p.m / DMHP p.p.m: b654 25/20, b655 25/10, b656 25/5, b657 12.5/20, b658 12.5/10, b659 12.5/5, b660 50/-, b661 25/-, b662 12.5/-, b665 TMP 15, b666 TMP 30, b667 SQX 85, b669 SQX 42.5"}, "Staphylococcus aureus [1]": {"tested_on": "Staphylococcus aureus", "test": "M.I.C. in Wellcome Nutrient Agar, 18 hours at 37° C.", "type": "cell-based", "settings": "DMHP Nil"}, "[2]": {"tested_on": "Staphylococcus aureus N 491", "test": "growth rate inhibition, turbidometric, Wellcome Nutrient Broth", "type": "cell-based"}, "[3]": {"tested_on": "Staphylococcus aureus CN 491", "test": "testing discs on standard nutrient medium", "type": "cell-based", "settings": "per 6 mm filterpaper disc: TMP 1.25 μg, SMX 23.75 μg, DMHP 100 μg, as in label"}, "[4]": {"tested_on": "Streptococcus faecalis CN 478", "test": "testing discs on standard nutrient medium", "type": "cell-based", "settings": "per 6 mm filterpaper disc: TMP 1.25 μg, SMX 23.75 μg, DMHP 100 μg, as in label"}, "Escherichia coli CN 314": {"tested_on": "Escherichia coli CN 314", "test": "testing discs on standard nutrient medium", "type": "cell-based", "settings": "per 6 mm filterpaper disc: TMP 1.25 μg, SMX 23.75 μg, DMHP 100 μg, as in label"}, "Proteus vulgaris CN 329": {"tested_on": "Proteus vulgaris CN 329", "test": "testing discs on standard nutrient medium", "type": "cell-based", "settings": "per 6 mm filterpaper disc: TMP 1.25 μg, SMX 23.75 μg, DMHP 100 μg, as in label"}, "[5]": {"tested_on": "Pseudomonas aeruginosa CN 200", "test": "testing discs on standard nutrient medium", "type": "cell-based", "settings": "per 6 mm filterpaper disc: TMP 1.25 μg, SMX 23.75 μg, DMHP 100 μg, as in label"}, "Staphylococcus aureus [6]": {"tested_on": "Staphylococcus aureus", "test": "microbe, parasite or virus in culture", "settings": "for Percentage of inoculum viable at 24 hrs.: DMHP Nil, Test 2", "method": "The results are shown in Table 9 in which the bactericidal activity is expressed as the percentage of the original inoculum, measured by viable counts, which was alive after 24-hours' incubation at 37° C. The inoculum used gave a final concentration of 10^6 organisms per ml."}, "[7]": {"settings": "Staphylococcus aureus, N491, 7 h, read-out: Percentage of inhibition at 7 hrs."}, "[8]": {"settings": "Table 6, doses as in E56, listed as TMP"}, "[9]": {"settings": "Staphylococcus aureus, 24 h, read-out: Percentage of inoculum viable at 24 hrs."}},
  "note": "“And” between values parts separate entries of the source, which are not always exact repeats. Identical values can stand only once.",
  "data": [
    {"compound": "Nc1ccc(S(=O)(=O)Nc2cnc3ccccc3n2)cc1", "note": "[SQX, sulphaquinoxaline]", "values": [
      {"measurement": "Mortality from Coccidiosis", "setting": "E. tenella", "value": "8/10 and 9/10"},
      {"measurement": "activity alone against Pasteurella multocida", "setting": "Pasteurella multocida; Example 3 Experiment 1", "value": "good activity alone"},
      {"measurement": "Average Weight of surviving chicks", "setting": "Pasteurella multocida; Table 5, doses as in E44", "value": "259.5 gm and 234.0 gm"},
      {"measurement": "Cumulative Mortality on day 5", "setting": "Pasteurella multocida; Table 5, doses as in E44", "value": 1},
      {"measurement": "Cumulative Mortality on day 6", "setting": "Pasteurella multocida; Table 5, doses as in E44", "value": 1},
      {"measurement": "Cumulative Mortality on day 7", "setting": "Pasteurella multocida; Table 5, doses as in E44", "value": 1},
      {"measurement": "Cumulative Mortality on day 8", "setting": "Pasteurella multocida; Table 5, doses as in E44", "value": 1},
      {"measurement": "Cumulative Mortality on day 9", "setting": "Pasteurella multocida; Table 5, doses as in E44", "value": 1},
      {"measurement": "Cumulative Mortality on day 10", "setting": "Pasteurella multocida; Table 5, doses as in E44", "value": 1},
      {"measurement": "Weight gain (% of control)", "setting": "Pasteurella multocida; Table 5, percentage of uninfected controls, doses as in E44", "value": "84 % of control and 69 % of control"},
      {"measurement": "Cumulative Mortality on day 6", "setting": "Pasteurella multocida; Table 6, doses as in E56", "value": 1},
      {"measurement": "Cumulative Mortality on day 7", "setting": "Pasteurella multocida; Table 6, doses as in E56", "value": 1},
      {"measurement": "Cumulative Mortality on day 8", "setting": "Pasteurella multocida; Table 6, doses as in E56", "value": 1},
      {"measurement": "Cumulative Mortality on day 9", "setting": "Pasteurella multocida; Table 6, doses as in E56", "value": 1},
      {"measurement": "Cumulative Mortality on day 10", "setting": "Pasteurella multocida; Table 6, doses as in E56", "value": 1},
      {"measurement": "Cumulative Mortality on day 11", "setting": "Pasteurella multocida; Table 6, doses as in E56", "value": 1},
      {"measurement": "Cumulative Mortality on day 1", "setting": "Pasteurella multocida; Table 6", "value": 0}
    ]},
    {"compound": "Cc1cc(NS(=O)(=O)c2ccc(N)cc2)no1", "note": "[Sulphamethoxazole, sulphamethoxazole]", "values": [
      {"measurement": "Sulphamethoxazole M.I.C.", "setting": "Staphylococcus aureus [1]", "value": 1.0, "unit": "µg/mL"},
      {"measurement": "inhibition at 0.1 µg/mL", "setting": "[2]; [7]", "value": 16, "unit": "%"},
      {"measurement": "Size of zone in cm (×6 magnification)", "setting": "[3]", "value": 26, "unit": "cm"},
      {"measurement": "Size of zone in cm (×6 magnification)", "setting": "[4]", "value": 0, "unit": "cm"},
      {"measurement": "Size of zone in cm (×6 magnification)", "setting": "Escherichia coli CN 314", "value": 28, "unit": "cm"},
      {"measurement": "Size of zone in cm (×6 magnification)", "setting": "Proteus vulgaris CN 329", "value": 36, "unit": "cm"},
      {"measurement": "Size of zone in cm (×6 magnification)", "setting": "[5]", "value": 32, "unit": "cm"}
    ]},
    {"compound": "COc1cc(Cc2cnc(N)nc2N)cc(OC)c1OC", "note": "[Trimethoprim, 2,4-diamino-5-(3'4',5'-trimethoxybenzyl)pyrimidine]", "values": [
      {"measurement": "Cumulative Mortality on day 4", "setting": "Pasteurella multocida; Table 6, doses as in E56", "value": 8},
      {"measurement": "Cumulative Mortality on day 6", "setting": "Pasteurella multocida; Table 6, doses as in E56", "value": 10},
      {"measurement": "Cumulative Mortality on day 2", "setting": "Pasteurella multocida; [8]", "value": "4 and 2"},
      {"measurement": "Cumulative Mortality on day 3", "setting": "Pasteurella multocida; [8]", "value": "4 and 5"},
      {"measurement": "Cumulative Mortality on day 5", "setting": "Pasteurella multocida; [8]", "value": "10 and 8"},
      {"measurement": "Cumulative Mortality on day 1", "setting": "Pasteurella multocida; Table 6", "value": 0},
      {"measurement": "Percentage of inhibition at 7 hrs.", "setting": "[2]", "value": "6 and 12"},
      {"measurement": "inhibition at 0.002 µg/mL", "setting": "[2]; [7]", "value": 10, "unit": "%"},
      {"measurement": "inhibition at 0.004 µg/mL", "setting": "[2]; [7]", "value": 8, "unit": "%"},
      {"measurement": "viability at 0.3 µg/mL", "setting": "Staphylococcus aureus [6]; [9]", "value": "> 100", "unit": "%"},
      {"measurement": "viability at 1 µg/mL", "setting": "Staphylococcus aureus [6]; [9]", "value": "> 100", "unit": "%"},
      {"measurement": "Percentage of inoculum viable at 24 hrs.", "setting": "Staphylococcus aureus [6]; Trimethoprim 0.3 μg./ml", "value": "> 100", "unit": "%"},
      {"measurement": "Percentage of inoculum viable at 24 hrs.", "setting": "Staphylococcus aureus [6]; Trimethoprim 1.0 μg./ml", "value": "> 100", "unit": "%"},
      {"measurement": "Size of zone in cm (×6 magnification)", "setting": "[3]", "value": 21, "unit": "cm"},
      {"measurement": "Size of zone in cm (×6 magnification)", "setting": "[4]", "value": 28, "unit": "cm"},
      {"measurement": "Size of zone in cm (×6 magnification)", "setting": "Escherichia coli CN 314", "value": 34, "unit": "cm"},
      {"measurement": "Size of zone in cm (×6 magnification)", "setting": "Proteus vulgaris CN 329", "value": 19, "unit": "cm"},
      {"measurement": "Size of zone in cm (×6 magnification)", "setting": "[5]", "value": 0, "unit": "cm"}
    ]}
  ]
}
